Results as given in US7618985B2 (N.V. Organon, priority 2005, dated 2009).

Target: recombinant human ROCK-1 (Homo sapiens, UniProt Q13464)
Experiment: In-vitro inhibitory activity on recombinant human ROCK-1 (IMAP fluorescence polarisation, fluorescein-labelled peptide)
Format: biochemical
Conditions: for IC50: read-out: ROCK-I pIC50 (converted)
Description: In-Vitro Determination of Inhibitory Activity of Compounds of the Invention on Recombinant Human ROCK-1
10 μl of a 0.1 ng/μl solution of recombinant human ROCK-1 in assay buffer containing 2 mM dithiothreitol, is then added to each well, yielding a final test compound concentration of 10 μM. Following a one hour incubation at room temperature in the dark, enzyme activity is detected by adding 60 μl of IMAP binding reagent (Molecular Devices) to each well.

recombinant human ROCK-1, sequence (Q13464 whole entry): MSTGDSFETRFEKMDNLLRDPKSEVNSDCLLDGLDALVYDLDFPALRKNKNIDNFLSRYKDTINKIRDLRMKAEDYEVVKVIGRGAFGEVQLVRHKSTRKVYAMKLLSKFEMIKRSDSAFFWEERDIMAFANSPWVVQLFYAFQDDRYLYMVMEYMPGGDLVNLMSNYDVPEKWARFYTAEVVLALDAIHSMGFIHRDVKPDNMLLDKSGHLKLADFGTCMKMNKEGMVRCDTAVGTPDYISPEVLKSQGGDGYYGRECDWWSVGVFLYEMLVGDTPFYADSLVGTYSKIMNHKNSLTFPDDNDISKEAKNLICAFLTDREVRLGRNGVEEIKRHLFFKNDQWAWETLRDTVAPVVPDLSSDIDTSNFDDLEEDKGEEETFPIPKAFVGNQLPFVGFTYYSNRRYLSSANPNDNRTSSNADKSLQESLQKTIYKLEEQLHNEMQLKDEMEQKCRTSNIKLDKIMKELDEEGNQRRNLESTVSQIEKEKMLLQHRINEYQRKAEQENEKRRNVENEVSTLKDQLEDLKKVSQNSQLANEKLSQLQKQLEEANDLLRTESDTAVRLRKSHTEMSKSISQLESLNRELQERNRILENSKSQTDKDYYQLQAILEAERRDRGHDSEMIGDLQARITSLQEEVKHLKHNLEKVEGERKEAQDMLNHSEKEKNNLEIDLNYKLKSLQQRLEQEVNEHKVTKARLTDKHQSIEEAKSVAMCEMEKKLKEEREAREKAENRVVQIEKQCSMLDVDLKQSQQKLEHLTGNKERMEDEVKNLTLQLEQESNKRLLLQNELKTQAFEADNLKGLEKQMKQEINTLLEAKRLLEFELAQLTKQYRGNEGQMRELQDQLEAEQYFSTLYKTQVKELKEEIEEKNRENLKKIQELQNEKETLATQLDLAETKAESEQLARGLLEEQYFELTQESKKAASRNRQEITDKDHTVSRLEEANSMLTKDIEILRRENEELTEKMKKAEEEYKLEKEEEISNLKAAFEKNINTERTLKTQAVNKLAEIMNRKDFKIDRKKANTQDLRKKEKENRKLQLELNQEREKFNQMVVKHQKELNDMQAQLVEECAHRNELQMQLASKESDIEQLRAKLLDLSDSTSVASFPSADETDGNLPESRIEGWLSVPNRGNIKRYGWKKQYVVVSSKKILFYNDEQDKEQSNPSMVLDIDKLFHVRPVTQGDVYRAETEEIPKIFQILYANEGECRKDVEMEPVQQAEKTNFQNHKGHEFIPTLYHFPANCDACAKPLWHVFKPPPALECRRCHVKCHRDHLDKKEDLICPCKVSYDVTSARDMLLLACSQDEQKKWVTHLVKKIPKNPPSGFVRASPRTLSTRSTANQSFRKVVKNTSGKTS

SMILES	IC50 [nM]	ROCK-I pIC50 (recombinant human ROCK-1, dose response curve, IC50 = concentration causing 50% inhibition of the enzymatic activity)
Nc1nccc2cc(OC3CCCN(Cc4ccc[nH]4)C3)ccc12 (stereo not drawn) [Example 7F, 6-[1-(1H-Pyrrol-2-ylmethyl)piperidin-3-yloxy]isoquinolin-1-ylamine]	126	
Nc1nccc2cc(OC3CCCN(Cc4cccs4)C3)ccc12 (stereo not drawn) [Example 7G, 6-(1-Thiophen-2-ylmethylpiperidin-3-yloxy)isoquinolin-1-ylamine]	251	
Cc1ccc(CN2CCC[C@H](Oc3ccc4c(N)nccc4c3)C2)cc1 [Example 8B, (S)-6-[1-(4-Methylbenzyl)piperidin-3-yloxy]isoquinolin-1-ylamine]	158	
Nc1nccc2cc(SC3CCCNC3)ccc12 (stereo not drawn) [Example 12, 6-(Piperidin-3-ylsulfanyl)isoquinolin-1-ylamine]	501	
Nc1nccc2cc(S[C@H]3CCNC3)ccc12 [Example 13A, (S)-6-(Pyrrolidin-3-ylsulfanyl)isoquinolin-1-ylamine]	631	
Nc1nccc2cc(S[C@@H]3CCNC3)ccc12 [Example 13B, (R)-6-(Pyrrolidin-3-ylsulfanyl)isoquinolin-1-ylamine]	631	
Nc1nccc2cc(SC3CCNCC3)ccc12 [Example 13C, 6-(Piperidin-4-ylsulfanyl)isoquinolin-1-ylamine]	631	
Cc1cc2c(N)nccc2cc1OC1CCCN(Cc2ccccc2)C1 (stereo not drawn) [Example 19A]	794	
Nc1nccc2cc(OC3CCCN(CCOc4ccccc4)C3)ccc12 (stereo not drawn) [Example 21, 6-[1-(2-Phenoxyethyl)piperidin-3-yloxy]isoquinolin-1-ylamine]	200	
O=c1[nH]ccc2cc(SC3CCNCC3)ccc12 [Example 25, 6-(Piperidin4-ylsulfanyl)-2H-isoquinolin-1-one]	200	
O=c1[nH]cc(Br)c2cc(O[C@H]3CCCNC3)ccc12 [Example 29]	316	

Other lines, results leading:

IC50 [nM]	ROCK-I pIC50 (recombinant human ROCK-1, dose response curve, IC50 = concentration causing 50% inhibition of the enzymatic activity)	SMILES
200		CC(c1ccccc1)N1CCC[C@H](Oc2ccc3c(N)nccc3c2)C1 (stereo partly drawn) [Example 21G, (S)-6-[1-(1-Phenylethyl)piperidin-3-yloxy]isoquinolin-1-ylamine]
398		COc1ccc(CN2CCCC(Oc3ccc4c(=O)[nH]ccc4c3)C2)cc1 (stereo not drawn) [Example 23D, 6-[1-(4-Methoxybenzyl)piperidin-3-yloxy]-2H-isoquinolin-1-one]
	6.1	Cc1ccc(CN2CCC(Oc3ccc4c(=O)[nH]ccc4c3)CC2)cc1 [Example 30A, 6-[1-(4-Methylbenzyl)piperidin-4-yloxy]-2H-isoquinolin-1-one]
501		O=c1[nH]ccc2cc(OC3CCN(Cc4ccco4)CC3)ccc12 [Example 30E, 6-(1-Furan-2-ylmethylpiperidin-4-yloxy)-2H-isoquinolin-1-one]
631		CN1CCC(Oc2ccc3c(=O)[nH]ccc3c2)CC1 [Example 30G, 6-(1-Methylpiperidin-4-yloxy)-2H-isoquinolin-1-one]
794		O=c1[nH]ccc2cc(OC3CCN(CCCO)CC3)ccc12 [Example 31C, 6-[1-(3-Hydroxypropyl)piperidin-4-yloxy]-2H-isoquinolin-1-one]
794		O=c1[nH]ccc2cc(OC3CCN(CCO)CC3)ccc12 [Example 31E, 6-[1-(2-Hydroxyethyl)piperidin-4-yloxy]-2H-isoquinolin-1-one]
398		COc1cccc(CN2CCC(Oc3ccc4c(=O)[nH]ccc4c3)CC2)c1 [Example 31F, 6-[1-(3-Methoxybenzyl)piperidin-4-yloxy]-2H-isoquinolin-1-one]
316		O=c1[nH]ccc2cc(OC3CCN(Cc4ccc[nH]4)CC3)ccc12 [Example 31G, 6-[1-(1 H-Pyrrol-2-ylmethyl)piperidin-4-yloxy]-2H-isoquinolin-1-one]
501		O=C(CN1CCC[C@H](Oc2ccc3c(=O)[nH]ccc3c2)C1)c1ccccc1 [Example 32B, (S)-6-[1-(2-Oxo-2-phenylethyl)piperidin-3-yloxy]-2H-isoquinolin-1-one]
631		O=c1[nH]ccc2cc(O[C@H]3CCCN(CCOc4ccccc4)C3)ccc12 [Example 32C, (S)-6-[1-(2-Phenoxyethyl)piperidin-3-yloxy]-2H-isoquinolin-1-one]
251		O=c1[nH]ccc2cc(O[C@@H]3CCCN(CCOc4ccccc4)C3)ccc12 [Example 32E, (R)-6-[1-(2-Phenoxyethyl)piperidin-3-yloxy]-2H-isoquinolin-1-one]
501		O=c1[nH]ccc2cc(OC3CCCN(CC4CCCCC4)C3)ccc12 (stereo not drawn) [Example 33C, 6-(1-Cyclohexylmethylpiperidin-3-yloxy)-2H-isoquinolin-1-one]
